Test results reported in patent US7163787B2, “Methods for the identification of antiviral compounds” (Crucell Holland B.V., priority 2001, dated 2007).

Columns and labels:
HSV = conditions: A549 cells; cited from earlier work
HSV-1 [1] = assay: Viable cell scoring by MTS assay of HSV-1 infected PER.C6 with acyclovir; type: cell-based, Herpes Simplex Virus type 1; conditions: HSV-1 on PER.C6; day 6 post infection
Experimental: (§1) FIG. 17. Virustatic effect of acyclovir against (A) HSV-1 and (B) HSV-2 using infection of PER.C6 with different 10 fold serial dilutions of virus and viable cell scoring by MTS assay on day 6 post infection.
(§2) To test the feasibility of PER.C6 for antiviral drug screening, the acyclovir/HSV system was used. A TCID50 titration of both a HSV-1 as well as a HSV-2 stock virus produced on PER.C6 (titer 6000 TCID50/ml) was performed in either the absence or in the presence of different concentrations of acyclovir. PER.C6 cells were seeded in a 96-wells tissue culture plate at a concentration of 1×10^5 cells/well, in normal culture medium, DMEM (Gibco) supplemented with heat inactivated FBS (origin US, Gibco) and 1 ml 4.9 M MgCl2 (Sigma). The day after seeding, cells were pre-incubated with the appropriate acyclovir (20 mg/ml, Genthon) concentration being, 200, 20, 2, 0,2 and 0 μg/ml, diluted in normal culture medium, for 2 hours at 37° C. and 10% CO2. A total of 20 wells were used per concentration. […]
(§3) At day 6 post infection, CPE was scored in each of the wells and TCID50 calculated according to the Karber method (1931), which is well known to persons skilled in the art. In addition, viable cells were scored with the MTS assay. […] 10% CO2, followed by reading the OD490 in an ELISA reader.

HSV-2 [2] = assay: TCID50 titration of HSV-2 on PER.C6 with acyclovir, CPE score; type: cell-based, Herpes Simplex Virus type 2
Experimental: (§4) FIG. 16. Virustatic activity of acyclovir for Herpes Simplex Virus type 1 and type 2 (HSV-1 and HSV-2) using PER.C6 cells as a substrate for virus replication and TCID50 calculations based on CPE score on day 6 post infection.
as §2, §3

HSV-1 [3] = assay: TCID50 titration of HSV-1 on PER.C6 with acyclovir, CPE score; type: cell-based, Herpes Simplex Virus type 1
Experimental: as §4, §2, §3

HSV-2 [4] = assay: Viable cell scoring by MTS assay of HSV-2 infected PER.C6 with acyclovir; type: cell-based, Herpes Simplex Virus type 2; conditions: HSV-2 on PER.C6; day 6 post infection
Experimental: as §1, §2, §3

HRV14 or HRV16 = conditions: cited from earlier work

| SMILES | HSV replication (HSV) | prevention of cell death caused by virus (viable cells, MTS) (HSV-1 [1]) | amount of acyclovir for 1000 fold TCID50 reduction, relative to HSV-1 (HSV-2 [2]; HSV-2 on PER.C6, CPE score day 6 post infection) | virustatic effect (HSV-2 [2]; HSV-2 propagated on PER.C6 cells) | TCID50 reduction as compared to the control (HSV-1 [3]; HSV-1 on PER.C6, 20 μg/ml of acyclovir, CPE score day 6 post infection) [fold] | virustatic effect (HSV-1 [3]; HSV-1 propagated on PER.C6 cells) | viable cells scored with MTS assay compared with TCID50 result (HSV-2 [4]) | cytopathic effect in infected cells (HRV14 or HRV16; cells infected with HRV14 or HRV16) | rhinovirus replication in vitro (HRV14 or HRV16; in vitro) |
| --- | --- | --- | --- | --- | --- | --- | --- | --- | --- |
| Nc1nc2c(ncn2COCCO)c(=O)[nH]1 [acyclovir, 2-amino-1,9-dihydro-9-[(2-hydroethoxy)methyl]-6H-purin-6-one] | inhibited HSV replication | more effective at a lower dosage in preventing cell death caused by HSV-1 than by HSV-2 | required a higher amount of acyclovir | clear virustatic effect | ~1000 | clear virustatic effect | comparable results were obtained | – | – |
| c1ccc2c(c1)oc1ccccc12 [Dibenzofuran] | – | – | – | – | – | – | – | hinder the cytopathic effect | block rhinovirus replication in vitro |
